How the values were obtained:
Assay type in all cases: cell-based, human
[1] = tested on: VEGFR-2; assay: VEGFR-2 expression in LPC-treated HAECs by flow cytometry; settings: LPC (30 μM) 6 h; caspase-1 inhibitor or Sirt-1 activator 10 μM pretreatment where named
Method: FIG. 17, comprising FIG. 17A through FIG. 17D, depicts experimental results showing inhibition of caspase-1 activation and activation of Sirt-1 increase VEGFR-2 expression. FIG. 17A depicts experiments showing caspase-1 depletion increases VEGFR-2 expression. A microarray data-mining analysis was performed by analyzing the indicated microarray dataset deposited in the National Institutes of Health NCBI-Geo-profile database. The gene expression value was determined based on the relative threshold cycle on the database. […] In addition, depletion of caspase-1 slightly increases the expressions of the caspase-1-cleaving substrates cytokines IL-1β and IL-18. […] FIG. 17B depicts caspase-1 inhibition and Sirt-1 activation increase the expression of VEGFR-2 after LPC treatment in HAECs. HAECs pretreated with the caspase-1 inhibitor (10 μM) and Sirt-1 activator (10 μM) and then treated with LPC (30 μM) for 6 h have an increased expression of VEGFR-2. FIG. 17C depicts three cell size gates were established, small, medium, and large according to FSC (y axis); and VEGFR-2 expression (x axis) was measured in those gated cells to analyze differential VEGFR-2 expressions according to the cell size after treatments with LPC (30 μM), caspase-1 inhibitor (10 μm), and Sirt-1 activator (10 μm) for 6 h. […] FIG. 17D depicts bar graphs showing the quantitation data of VEGFR-2 expressions. *, p<0.05.
(§1) All flow cytometric data were analyzed by using the FlowJo software (Tree Star, Ashland, Oreg.). The uncompensated data were collected from the flow cytometer (either FACSCalibur flow cytometer or LSRII flow cytometer; BD Biosciences). Forward and side scatter gates were used to select live cell populations from clumps and debris. The positive gating was determined by its matched IgG control, and single staining was used to determine the compensation parameter. Different gates were established to analyze the data according to cell size as described in our figures.

[2] = tested on: HAECs; assay: Tube formation assay in Matrigel; settings: LPC (30 μm) with or without caspase-1 inhibitor (10 μm), Matrigel 16 h
Method: FIG. 18, comprising FIG. 18A and FIG. 18B, depicts experimental results showing tube formation, as an in vitro model of angiogenesis, is improved after caspase-1 inhibition in LPC-treated cells. FIG. 18A depicts experiments where HAECs were treated with LPC (30 μm) and caspase-1 inhibitor (10 μm) for 6 h. After the treatment, the cells were incubated in the Matrigel for 16 h for the analysis of tube formation. FIG. 18B depicts bar graph showing the increases of total master segment lengths after the inhibition of caspase-1 in LPC-treated HAECs.*, p<0.05.
The Matrigel matrix (Bedford, Mass.) was used to coat the 96-well plates. Human aortic endothelial cells were cultured. The cells were treated with caspase-1 inhibitor (Anaspec, Fremont, Calif.) and proatherogenic stimulus LPC for 24 h. HAECs were harvested and suspended. Cell concentration was determined and added to each Matrigel-coated well and incubated for 16-18 h. Images were collected using the inverted microscope.

[3] = tested on: caspase-1; assay: Caspase-1 activity assay (FAM-YVAD-FMK, flow cytometry) in HAECs; settings: 6 h, oxLDL (100 μM), LPA (30 μM), LPC (30 μM)
Method: (§2) Active caspase-1 level was determined with APO LOGIX kit (Cell Tech., Mountain View, Calif.). The kit contains a carboxyfluorescein (FAM) [Excitation/Emission (nm):490/520]-labeled peptide fluoromethyl ketone (FMK) caspase-1 inhibitor (FAM-YVAD-FMK), which irreversibly binds to active caspase-1. All procedures were performed according to the manufacturer's instruction. Briefly, HAECs (≤passage 9) were cultured in 6-well plates and serum starved overnight to quiescent the cells before treatment. Next day, HAECs were treated with indicated stimuli for 6 hr. Cells were then digested by trypsin-EDTA and suspended at 1×10^6 cells/ml. 150 μl of cell suspension were incubated at 37° C. with 1× FAM-YVAD-FMK for 1 hour then washed with 1× washing buffer. Unfixed caspase-1 stained cells were then incubated with 7-aminoactinomycin D (7-AAD; cell membrane integrity marker) (BD Pharmingen, San Diego, Calif.) for no more than 10 min before analysis. The Calibur flow cytometer (BD Biosciences, San Jose, Calif.) was used to determine caspase-1 active (Caspase-1^+) and 7-AAD^+ cells. Data were analyzed with the FlowJo software (Tree Star, Ashland, Oreg.).
Active caspase-1 levels were determined with an APO LOGIX kit (Cell Technology, Mountain View, Calif.). The kit contained a carboxyfluorescein (FAM) (excitation/emission (nm): 490/520)-labeled peptide fluoromethyl ketone (FMK) caspase-1 inhibitor (FAM-YVAD-FMK), which irreversibly binds to active caspase-1. The procedures were performed according to the manufacturer's instructions. HAECs were cultured in 6-well dishes and serum-starved overnight to ensure quiescence of the cells before treatment. The next day, HAECs were treated with the indicated stimuli for 6 h. Cells were harvested and suspended at 1×10^6 cells/ml. The cell suspension (150 μl) was incubated in 37° C. with 1× FAM-YVAD-FMK for 1 h. After being washed with 1× washing buffer, the cells were fixed with fixative buffer and stored in 4° C. for up to 24 h. To determine the cell membrane integrity, the unfixed cells were stained with 7-AAD (Pharmingen) (0.25 μg/test) and incubated for no more than 10 min before analysis.
as §1

[4] = tested on: HAECs; assay: Caspase-1/7-AAD co-staining for pyroptosis in HAECs
Method: FIG. 7, comprising FIG. 7A through FIG. 7D, depicts experimental results showing Oxidized low-density lipoprotein (oxLDL) and its components induce caspase-1 (casp-1) activation in human aortic endothelial cells (HAECs) via a reactive oxygen species (ROS)-mediated p-athway. FIG. 7A depicts pyroptotic cell death in HAECs caused by activation of casp-1 induced by oxLDL and its components. HAECs were cultured and treated with low-density lipoprotein (LDL; 100 μg/mL), oxLDL (100 μg/mL), oxLDL-derivatives lysophosphatidic acid (LPA, 100 μM), or lysophosphatidylcholine (LPC, 15 μM) as indicated for 6 hours. Casp-1 activity was determined by a commercial kit, and 7-aminoactinomycin D (7-AAD) fluorescence dye was used to determine the cell membrane integrity. Casp-1^+/7-AAD^+ cells were gated as pyrototic cells (Q3), casp-1^+ single positive cells (Q2) were gated as inflammatory cells, and 7-AAD^+ single positive cells (Q4) were gated as necrotic cells. FIG. 7B depicts ROS levels in pyroptotic cells. ROS levels were determined by dihydroethidium (DHE) fluorescence dye staining, and the mean fluorescence intensity (MFI) of DHE^+ cell fraction was determined. […] Allopurinol (1 mmol/L) and Apocynin (100 μM) were added 1 hour before oxLDL treatment. HAECs were then treated with oxLDL (100 μg/mL) for 6 hours and stained for caspase-1 activity. FIG. 7D depicts mRNA upregulation of inflammasome components, including NLRP1 (Nod-like receptor protein 1), NLRP3 (Nod-like receptor 3), PYCARD (or ASC, inflammasome adaptor apoptosis-associated speck-like protein containing a CARD), caspase-1, and IL-1β (interleukin-1β) in HAECs treated with oxLDL. Data are expressed as mean±SE. *P<0.05, changes with statistical significance.
as §2
Active caspase-1 levels were determined with an APO LOGIX kit (Cell Technology, Mountain View, Calif.). The kit contained a carboxyfluorescein (FAM) (excitation/emission (nm): 490/520)-labeled peptide fluoromethyl ketone (FMK) caspase-1 inhibitor (FAM-YVAD-FMK), which irreversibly binds to active caspase-1. The procedures were performed according to the manufacturer's instructions. HAECs were cultured in 6-well dishes and serum-starved overnight to ensure quiescence of the cells before treatment. The next day, HAECs were treated with the indicated stimuli for 6 h. Cells were harvested and suspended at 1×10^6 cells/ml. […]

SMILES: CCCCCCCCCCCCCCCC(=O)OC[C@@H](O)COP(=O)([O-])OCC[N+](C)(C)C [LPC, 1-hexadecanoyl-sn-glycerol-3-phosphorylcholine]
- VEGFR-2 expression in the larger size of HAECs [1]: 34.3%
- VEGFR-2 expression in the medium size of HAECs [1]: 22.1%
- VEGFR-2 expression in the smaller size of HAECs [1]: 11.3%
- total master segment length of tube formation [2]: 317 μm
- caspase-1 activation in larger size of HAECs ([3]; large FSC gate): 52.8%
- caspase-1 activation in smaller size of HAECs ([3]; small FSC gate): 38.2%
- induction of inflammation, pyroptosis and necrosis (caspase-1/7-AAD gating) ([4]; HAECs, 6-hour stimulation, oxLDL 100 μg/mL, LPA 100 μM, LPC 15 μM): induced inflammation, inflammatory cell death (pyroptosis), and necrosis
- 7-AAD+ pyroptosis in large size of caspase-1(+) HAECs ([4]; LPC-treated HAECs): 9.93%
- 7-AAD+ pyroptosis in medium size of caspase-1(+) HAECs ([4]; LPC-treated HAECs): 20.17%
- 7-AAD+ pyroptosis in smaller size of caspase-1(+) HAECs ([4]; LPC-treated HAECs): 38.77%

— patent publication US10751396B2, “Early hyperlipidemia promotes endothelial activation via a caspase-1-sirtuin 1 pathway” (Temple University—Of The Commonwealth System of Higher …, priority 2015, dated 2020)
